Laboratory results published in patent publication US5789395A, “Method of using tetracycline compounds for inhibition of endogenous nitric oxide production” (The Research Foundation of State University of New York, priority 1996, dated 1998).

How the values were obtained:
renal mesangial cells = test: NO production by IFN-γ/LPS-stimulated renal mesangial cells (Greiss reaction); format: cell-based, rat; conditions: for inhibition of NO production, time course: 24-72 hr; for Emax at 5 µg/mL: Rattus norvegicus, Mesangial cell, 5 μg/mL, 48 hr, P<0.01, read-out: inhibition of NO production, maximal effect
From the text: The use of IFN-γ to induce renal injury is a model of glomerulonephritis known in the art. Glomerulonephritis is characterized by increased production of NO.

collagenase = conditions: cited from earlier work
iNOS [1] = test: iNOS activity (L-arginine-to-L-citrulline) in cell-free extracts of cells treated with modulator before LPS; format: cell-based, murine; conditions: positive control
Method: Murine macrophage cells (RAW 264.7) were incubated with 20-80 μg/mL doxycycline or minocycline, 10 μM hydrocortisone (Sigma Chemical Co., St. Louis, Mo.), or 75 μM L-NMMA for 1-2 h, followed by addition of LPS at 100 ng/mL and incubation for 16-18 h. Cell-free extracts were prepared at the end of each time period. Specific activity of iNOS was determined in the cell-free extracts by monitoring the conversion of L-[^3 H]-arginine to L-[^3 H]-citrulline as described by Amin et al. (1995b) and Vyas et al. (1996).
Cell-free extracts were prepared as follows: Following induction by incubation with LPS, the cells were pelleted at 4° C. and resuspended in Tris buffer (10 mM, pH 7.4) containing 10 μg/mL each chymostatin, antipain, leupeptin and pepstatin, 1 mM DTT and 1 mM PMSF. Cells were lysed in a Polytron PT 1200 homogenizer (Kinematica AG, Switzerland) after 3 cycles of rapid freeze-thawing. The lysate was centrifuged at 16,000 rpm for 60 min at 4° C., and the supernatants were used as cell-free extracts.
The protein in the extracts was measured by BCA assay reagent using BSA as standard (Smith et al. 1985). The reaction mixture for iNOS assay consists of Tris 50 mM (pH 7.8); BSA 1 mg/mL; DTT 1 mM; CaCl2, 2 mM; FAD 10 μM; BH4 10,μM; L-arginine 30 μM; NADPH 1 mM. The reaction mixture was spiked with 1μL (250 nM) of L-[^3 H]-arginine (Dupont NEN, Boston, Mass.) (1 mCi/mL=37.0 MBq/mL). After 20 min the assays were terminated by heating the reaction mixture at 90° C. for 5 min. Ten microiters (≈100,000 cpm) of the supernatant was spotted on activated AVICEL TLC plates (Analtech, Newark, Del.). The TLC plates were developed in a solvent system consisting of ethanol:water:ammonia (80:16:4). Quantitation of the spot for L-[^3 H]-citrulline was performed by a Bioscan System 200 Imaging Scanner.

NOS = conditions: competitive inhibitor; cited from earlier work
iNOS [2] = conditions: in vitro; Amin et al. 1995b; cited from earlier work
[3] = system: iNOS expression in mesangial cells; conditions: Pfeilschifter et al. (1995); cited from earlier work
133 kD iNOS = test: iNOS protein expression in LPS-activated RAW 264.7 cells (Western blot); format: cell-based, murine; conditions: 10 μM, positive control
Method: RAW 264.7 cells were activated with 100 ng/mL LPS for 16-18 h, with and without doxycycline or minocycline (20-80 μg/mL) or with hydrocortisone (10 μM). Cell-free extracts were prepared as described above. The extract s were analyzed for 133 kD iNOS by Western blotting, using specific anti-iNOS antibodies.
Equal amounts of protein (25-50 μg) estimated by BCA reagent (Pierce, Rockford, Ill.) were loaded onto SDS-PAGE gels and stained to verify the concentrations of various protein fractions by examining the intensities of the protein bands on the gels. Western blot analysis was carried out from the same cell extracts. The Western-blotted membrane was probed with a specific anti-murine iNOS monoclonal antibody (Transduction Laboratories, Lexington, Ky.), as specified by the supplier. The same blot was also probed with an anti-actin antibody generously provided by Dr. James L. Lessard (Children's Hospital Medical Center, Cincinnati, Ohio). The blots were developed using the ECL Western blot system (Amersham, Arlington Heights, Ill.). Quantitation of the bands was performed using a densitometer from Molecular Dynamics (Sunnyvale, Calif.). FIG. 5 is representative.

iNOS mRNA [4] = test: iNOS mRNA expression in LPS-stimulated RAW 264.7 cells (RT-PCR); format: cell-based, murine; conditions: Mus musculus, RAW264.7, read-out: decrease of iNOS mRNA
Method: Doxycycline and minocycline may suppress iNOS before the synthesis of the enzyme, leading to inhibition of iNOS protein expression, specific activity and accumulation of nitrite. […] Therefore, to determine the level at which tetracycline inhibited iNOS protein expression, RAW 264.7 cells treated with LPS in the presence or absence of doxycycline and minocycline were analyzed for iNOS mRNA by semi-quantitative RT-PCR.
The presence of iNOS and β-actin mRNA in cells was analyzed by reverse transcription (RT) of total RNA followed by PCR amplification of the cDNA. The sense and antisense oligonucleotides for iNOS were, respectively, 5'-ACGGAGAAGCTTAGATCTGGAGCAGAAGTG-3'(142 to 171) (SEQ ID NO:1) and 5'-CTGCAGGTTGGACCACTGGATCCTGCCGAT-3' (767 to 796) (SEQ ID NO:2). The sense and antisense primers for β-actin were 5'-TCCTTCGTTGCCGGTCCACA-3' (44 to 63) (SEQ ID NO:3) and 5'-CGTCTCCGGAGTCCATCACA-3' (534 to 552) (SEQ ID NO:4), respectively. The predicted PCR product of the iNOS cDNA was 654 bp; that of the β-actin cDNA was 508 bp. The polymerase chain reaction was carried out in an automated DNA thermal cycle (Perkin-Elmer Cetus, Norwalk, Conn.). The total RNA was extracted using TRI-Reagent (MRC Inc., Cincinnati, Ohio). The cDNA was prepared from equal amounts (1-5 μg) of total RNA using a SuperScript™ RNase H Reverse Transcriptase (Gibco BRL, Gaithersburg, Md.). An equal amount of the cDNA was used to amplify the mRNA by PCR. PCR amplification was performed in 50 μL solution containing 1.5 mM MgCl2, 500 ng iNOS primer, 100 ng β-actin primer, 0.2 mM of each dNTP, 2.5 units of Taq DNA polymerase (Gibco). The cycle conditions for amplification of cDNA were 1 min at 94° C., 1-2 min at 55° C. and 3 min at 72° C. for 30 cycles for both iNOS and β-actin. The PCR product was analyzed by electrophoresis on 1.0% agarose gels.
RT-PCR analysis of iNOS and βactin mRNA expression in RAW 264.7 cells was carried out after stimulation with LPS±doxycycline or minocycline. […] Equal amounts of RNA were analyzed for iNOS and β-actin expression as described above.

iNOS mRNA [5] = test: iNOS mRNA expression in LPS-stimulated RAW cells (Northern blot); format: cell-based, murine; conditions: Mus musculus
Method: Northern blot analysis of the iNOS MRNA expressed by the cells was then carried out to evaluate precisely the effect of iNOS expression in the presence of doxycycline and minocycline. The probes again were the iNOS and β-actin CDNA probes described above.
In this case, total RNA was isolated using TRI Reagent (MRC Inc., Cincinnati, Ohio). […] Briefly, 30 μg of RNA was subjected to electrophoresis in 1% agarose formaldehyde gel. The gel was then transferred via capillary action onto a nylon membrane (Zeta Probe, Bio-Rad Laboratories, Melville, N.Y.). The membrane was hybridized with [^32 P]-dCTP-labeled iNOS CDNA (4 kb SmaI fragment), a kind gift from Dr. James Cunningham (Harvard Medical School, Boston, Mass.). After hybridization, the blot was exposed to Kodak X-ray film (Kodak, Rochester, N.Y.) for 24-48 h with intensifying screens at -70° C. The β-actin probe was purchased from ClonTech (Palo Alto, Calif.) and probed as described above. Quantitation of the intensity of the iNOS/β-actin bands was performed using a phosphoimager (Molecular Dynamics, Sunnyvale, Calif.).

[6] = system: iNOS expression in macrophages; conditions: Nathan et al. 1994, Vodovotz et al. 1993; cited from earlier work

CC1(O)c2cccc(O)c2C(=O)C2=C(O)C3(O)C(=O)C(C(N)=O)=C(O)CC3CC21 (centres unmarked) [CMT-1, 4-dedimethylaminotetracycline]
NO production (% of control) (renal mesangial cells; 10 μg/mL, after 48 hr): ~ 60 % of control
anti-collagenase activity (collagenase): modest anti-collagenase activity

NC(=O)C1=C(O)C2(O)C(=O)C3=C(O)c4c(O)cccc4CC3CC2CC1=O (centres unmarked) [CMT-3, 6-demethyl-6-deoxy-4-dedimethylaminotetracycline]
inhibition of NO production, time course (renal mesangial cells): time-dependent inhibition of NO production
Emax at 5 µg/mL (renal mesangial cells): > 80%
anti-collagenase activity (collagenase): high level of anti-collagenase activity

C[C@H]1c2cccc(O)c2C(O)=C2C(=O)[C@]3(O)C(O)=C(C(N)=O)C(=O)C[C@@H]3[C@@H](O)[C@@H]21 [CMT-8, 6-α-deoxy-5-hydroxy-4-dedimethylaminotetracycline]
inhibition of NO production, time course (renal mesangial cells): time-dependent inhibition of NO production
Emax at 5 µg/mL (renal mesangial cells): > 80%
anti-collagenase activity (collagenase): high level of anti-collagenase activity

CN=C(N)NCCC[C@H](N)C(=O)O [L-NMMA]
inhibition of iNOS activity (iNOS [1]; 75 μM): 64%
inhibition of NOS activity (NOS): > 95%

CC(=O)n1ccnc1 [N-acetyl imidazole, N-acetylimidazole]
inhibition of iNOS catalytic activity (iNOS [2]): inhibit iNOS catalytic activity in vitro

CC(=O)Oc1ccccc1C(=O)O [aspirin]
inhibition of iNOS catalytic activity (iNOS [2]): inhibit iNOS catalytic activity in vitro

C[C@@H]1C[C@H]2[C@@H]3CCC4=CC(=O)C=C[C@]4(C)[C@@]3(F)[C@@H](O)C[C@]2(C)[C@@]1(O)C(=O)CO [dexamethasone]
suppression of IL-1β-induced iNOS expression [3]: acts at multiple levels (including transcription of iNOS) to suppress IL-1β-induced iNOS expression

C[C@]12CCC(=O)C=C1CC[C@@H]1[C@@H]2[C@@H](O)C[C@@]2(C)[C@H]1CC[C@]2(O)C(=O)CO [hydrocortisone]
inhibition of iNOS activity (iNOS [1]; 10 μM): 60%
inhibition of iNOS protein expression (133 kD iNOS): 43%
inhibition at 10 µM (iNOS mRNA [4]): 50 to 100%
inhibition at 10 µM (iNOS mRNA [5]; read-out: inhibition of iNOS mRNA expression, 10 μM, doxycycline experiment (FIG. 6C)): 73%
inhibition at 10 µM (iNOS mRNA [5]; read-out: inhibition of iNOS mRNA expression, 10 μM, minocycline experiment (FIG. 6D)): 76%
suppression of iNOS expression [6]: suppress iNOS expression by decreasing mRNA expression

TGF-β1: suppresses iNOS expression in macrophages
suppression of iNOS expression [6]: suppress iNOS expression by decreasing mRNA expression
